Measurements as given in US11780854B2, “Prolyl hydroxylase domain-containing protein (PHD) inhibitors and uses thereof” (Insilico Medicine IP Limited, priority 2021, dated 2023).

Columns and labels:
PHD2 = PHD2 (Homo sapiens (Human), UniProt Q9GZT9); assay: PHD2 Enzymatic Assay (AlphaScreen); type: biochemical; conditions: 30 min preincubation at RT
Hep3B cell = assay: EPO Elisa Assay in Hep3B cells; type: cell-based; conditions: Homo sapiens, 24 h at 37° C.

Chain of PHD2 (Q9GZT9 whole entry): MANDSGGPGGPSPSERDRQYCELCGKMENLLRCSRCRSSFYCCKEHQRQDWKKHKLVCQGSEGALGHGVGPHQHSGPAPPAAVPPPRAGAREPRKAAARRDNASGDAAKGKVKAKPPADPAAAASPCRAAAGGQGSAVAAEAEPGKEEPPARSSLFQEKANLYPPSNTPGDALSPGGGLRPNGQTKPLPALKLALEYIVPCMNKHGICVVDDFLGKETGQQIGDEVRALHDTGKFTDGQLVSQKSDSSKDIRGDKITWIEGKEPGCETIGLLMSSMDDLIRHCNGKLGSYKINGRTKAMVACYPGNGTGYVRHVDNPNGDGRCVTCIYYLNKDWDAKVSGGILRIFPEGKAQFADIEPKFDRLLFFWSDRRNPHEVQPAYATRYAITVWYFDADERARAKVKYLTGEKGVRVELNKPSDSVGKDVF

IC50 (PHD2) [nM]	EC50 (Hep3B cell) [µM]	SMILES
< 5	< 2.5	N#Cc1ccc(CNC(=O)c2ncc3nc(N4CCC5(COC5)C4)ccc3c2O)cn1 [compound 25]
< 5	5 to 7.5	CN1CCC2(CCN(c3ccc4c(O)c(C(=O)NCc5ccc(C#N)nc5)ncc4n3)CC2)C1=O [compound 67]
< 5	10 to 100	CN1C[C@@H]2C[C@H]1CN2c1ccc2c(O)c(C(=O)NCc3ccc(C#N)cc3Cl)ncc2n1 [compound 58]
< 5	10 to 100	CC(C)(C)OC(=O)N[C@@H]1CN(c2ccc3c(O)c(C(=O)NCc4ccc(C#N)nc4)ncc3n2)CC12CC2 [compound 145]
< 5	10 to 100	CC(C)(C)OC(=O)N1C[C@@H]2C[C@H]1CN2c1ccc2c(O)c(C(=O)NCc3ccc(C#N)nc3)ncc2n1 [compound 116]
< 5	2.5 to 5	N#Cc1ccc(CNC(=O)c2ncc3nc(N4C[C@H]5C[C@@H]4CO5)ccc3c2O)cn1 [compound 43]
< 5	2.5 to 5	CC(C)(C)OC(=O)N1C[C@@H]2CN(c3ccc4c(O)c(C(=O)NCc5ccc(C#N)nc5)ncc4n3)C[C@@H]2C1 [compound 117]
< 5	< 2.5	CC(C)(C)OC(=O)N1CC2(C1)CN(c1ccc3c(O)c(C(=O)NCc4ccc(C#N)nc4)ncc3n1)C2 [compound 91]
< 5	2.5 to 5	N#Cc1ccc(CNC(=O)c2ncc3nc(N4C[C@@H]5C[C@H]4CO5)ccc3c2O)cn1 [compound 44]
< 5	< 2.5	N#Cc1ccc(CNC(=O)c2ncc3nc(N4C[C@@H]5C[C@H]4CN5C4CC4)ccc3c2O)cn1 [compound 80]
	2.5 to 5	N#Cc1ccc(CNC(=O)c2ncc3nc(N4CC5CC4CO5)ccc3c2O)cn1 (centres unmarked) [compound 30]
< 5	2.5 to 5	CC(C)(C)OC(=O)N1CCOC2(C1)CN(c1ccc3c(O)c(C(=O)NCc4ccc(C#N)nc4)ncc3n1)C2 [compound 118]

SMILES	IC50 (PHD2) [nM]	EC50 (Hep3B cell) [µM]
N#Cc1ccc(CNC(=O)c2ncc3nc(N4CCC5(COC5)C4)ccc3c2O)c(Cl)c1 [compound 8]	5 to 20	2.5 to 5
N#Cc1ccc(CNC(=O)c2ncc3nc(N4C[C@H]5C[C@@H]4CN5C4CC4)ccc3c2O)c(Cl)c1 [compound 69]	5 to 20	2.5 to 5
N#Cc1ccc(CNC(=O)c2ncc3nc(N4C[C@@H]5C[C@H]4CN5C4CC4)ccc3c2O)c(Cl)c1 [compound 68]	5 to 20	< 2.5
